Measured values reported in ChEMBL document CHEMBL1157539, “Thousands of chemical starting points for antimalarial lead identification” (Nature, 2010).

Test system: Plasmodium falciparum
Assay: GSK_TCMDC: Inhibition of Plasmodium falciparum 3D7 in whole erythrocytes, using parasite LDH activity as an index of growth.
Format: functional, organism-based
Conditions: Plasmodium falciparum, 3D7

Structure (SMILES)	XC50 [nM]
N[C@@H](COc1cccc2c(-c3ccncc3)c(-c3cccc(NC(=O)Nc4ccccc4)c3)nn12)c1ccccc1	408
CO/C(=C\C=C\c1cc2cc(Cl)c(Cl)cc2[nH]1)C(=O)NC1CCN(CCNc2ccccc2)CC1	258
N#Cc1ccc(OCCN(Cc2ccccc2C(F)(F)F)c2ccc(C#N)c(C(F)(F)F)c2)cc1	277
O=C(Nc1ccc(Cl)c(Cl)c1)Nc1ccc2nccc(N3CCNCC3)c2c1	262
COc1ccc(C2CC(c3cccs3)=NN2C(=O)COc2cccc3c2CCCC3O)cc1OC (centres undefined)	1150
Cc1ccc(NC(=N)Nc2ncccc2OCc2c(F)cccc2Cl)cc1	1190
Cc1ccc(C(=O)Nc2cccc(CN3CCCN(Cc4ccc(O)cc4)CC3)c2)cc1	1090
O=C(Nc1ccccc1)N1CCOC(CCN2CCC(F)(F)CC2)(c2ccc(Cl)c(Cl)c2)C1 (centres undefined)	185
Cc1cccc(OCC(=O)Nc2cccc(NC(=O)COc3cccc(C)c3)n2)c1	671
NC(=O)c1cccc(Nc2nccc(Nc3ccc(Oc4cccc5ccccc45)cc3)n2)c1	1150
COc1ccc(-c2cnc3ccc(NCc4ccc(F)cc4)nn23)cc1OC	834
CCN(CC)CCN(Cc1ccc(-c2ccc(C(F)(F)F)cc2)cc1)C(=O)Cn1c(CCc2c(F)cc(F)cc2F)nc(=O)c2ccccc21	1040
CCCCNCc1cc(Cl)c2ccccc2c1O	457
CC1(C)CC(NCCCCCCCOc2ccc(OCc3ccccc3)cc2)CC(C)(C)N1	827
CCN(CC)S(=O)(=O)c1ccc(C(=O)Oc2ccccc2N(Cc2ccc(OC)cc2)C2=NS(=O)(=O)c3ccccc32)cc1	585
O=C(C=Cc1ccc(C(=O)Nc2ccc(C3=NCCN3)cc2)cc1)Nc1ccc(C2=NCCN2)cc1	34.7
NOCCCCOc1ccc(Cl)cc1	785
CC(=O)Oc1c(Br)c(C)nc(C)c1-c1ccc(Oc2ccc(OC(F)(F)F)cc2)cc1	131
NCc1ccc(-c2ccc3c(N)nccc3c2)cc1	885
O=C1COc2cc(Cl)c(CNC3CCN(CCc4ccnc5c(F)cc(F)cc45)CC3)nc2N1	797
O=S(=O)(NC1CCN(c2ccnc3cc(Cl)ccc23)C1)c1cccs1 (centres undefined)	697
CN(C)CC(O)COc1ccc(Nc2ncc([N+](=O)[O-])c(Nc3ccccc3O)n2)cc1 (centres undefined)	762
Cc1cc2ncn(-c3ccnc(N4CCN(CCCN5CCCC5)CC4)n3)c2cc1C	828
Cc1c(S(=O)(=O)Nc2cccc(CCN3CCCCC3CCN3CCCC3)c2)sc2ccc(Cl)cc12 (centres undefined)	925

Structure (SMILES)	XC50 [nM]
O=S(=O)(c1ccc(OC(F)(F)F)cc1)C1CC2CCC(C1)N2S(=O)(=O)c1ccc(Cl)c(C(F)(F)F)c1 (centres undefined)	560
CCN(CC)CCN(Cc1ccc(-c2ccc(C(F)(F)F)cc2)cc1)C(=O)CN1C(CCc2cccc(F)c2F)=NS(=O)(=O)c2ccccc21	237
CCCc1ccccc1OCC(O)CN(C1CCCC1)C1CCCC1 (centres undefined)	470
COc1ccc(Nc2ncc3c(-c4cccc(NC(=O)Cc5cccnc5)c4)c[nH]c3n2)cc1OC	718
CC(Cc1ccc(OCCN2CCN(c3cccc(Cl)c3)CC2)cc1)NCC(O)c1cccc(Cl)c1 (centres undefined)	1210
Cn1cc(CN2CCCC(COC(c3ccccc3)c3ccccc3)C2)cn1 (centres undefined)	775
CN(CCCCCN1CCC(NC(=O)Nc2ccc(Oc3ccccc3)cc2)C1)C(=O)/C=C/c1ccc(Cl)c(Cl)c1 (centres undefined)	421
Cc1cc(N[C@@H](Cc2ccccc2)C(=O)Nc2ccccc2)nc(NCCc2cccnc2)n1	1340
Cc1cccc(NC(=O)Nc2cccc(-c3ccc(-c4nc5cc(C(F)(F)F)ccc5[nH]4)cc3)c2)c1	905
CC(C)(C)c1ccc(CNC(=O)c2ccc(CNC3CCC(N)CC3)s2)cc1 (centres undefined)	531
COc1ccc(Cl)cc1N1CCN(CCCNC(=O)c2ccc(-c3nc4cc(Cl)c(Cl)cc4[nH]3)c(C)c2)CC1	866
COc1cc(Nc2ccnc3ccc(C(F)(F)F)cc23)cc(OC)c1OC	698
CC(C)(CNCc1ccccc1)c1nc(-c2ccc(Cl)c(O)c2)c(-c2ccncc2)[nH]1	537
CCc1ccc(CN(Cc2ccc(C)cc2)Cc2ccc(NC(C)=O)cc2)cc1	962
c1cc(CN2CCN(c3ccncc3)CC2)cc(-c2ccc(-c3nc4ccccc4[nH]3)cc2)c1	153
COc1ccccc1-c1cccc2c(NC(=O)Nc3ccc4nccc(N5CCN(C)CC5)c4c3)ccnc12	1000
O=C(NC1CCCCN(Cc2ccccc2O)C1)c1cccc(C(F)(F)F)c1 (centres undefined)	795
CCCCCCN1CCCN(Cc2ccc(C(=O)Nc3ccc(C(C)C)cc3)cc2)CC1	834
CC(C)c1ccc(CN(C)CCCCNC(=O)c2ccc(NC(=O)c3ccc(Cl)cc3)cc2)cc1	994
CC(Oc1cc(-n2cnc3ccc(NC(=O)CCN4CCCCC4)cc32)sc1C(N)=O)c1ccccc1Cl (centres undefined)	400
Cc1[nH]c(C)c(-c2ccc(OCCn3cnc(Cl)c3Cl)cc2)c(=O)c1Br	853
O=C(Nc1cc(Cl)c(Cl)cc1NC(=O)c1cccc(-c2ccccc2)c1O)c1cccc(-c2ccccc2)c1O	505
COc1ccc2ncn(-c3ccc(C(N)=O)c(OCc4ccccc4C(F)(F)F)c3)c2c1	540
CC(=O)Nc1ccc(NC(=O)c2cc(-c3ccc(C)cc3O)n[nH]2)cc1	490

Structure (SMILES)	XC50 [nM]
CC(=O)Nc1ccc(C(=O)Nc2cccc(-c3cccc(-c4nc5cc(C(F)(F)F)ccc5[nH]4)c3)c2)cn1	73.7
CC1CCN(CCNC(=O)c2ccc3c(=O)n(Cc4ccc(Cl)cc4)c(=S)[nH]c3c2)CC1	704
CC(C)(C)c1ccc2[nH]c(-c3ccc(/C=C/C(=O)NCc4cccc(C(F)(F)F)c4)cc3)nc2c1	986
O=C(/C=C/c1ccc(Cl)cc1)NCCCCCN1CCCC(C(=O)Nc2ccc(F)c(Cl)c2)C1 (centres undefined)	1120
CN1CCC(N2CCN(Cc3cccc(-c4ccc(-c5nc6cc(F)ccc6[nH]5)cc4)c3)CC2)CC1	107
Fc1ccc2[nH]c(-c3ccc(-c4ccc(CN5CCN(CCN6CCOCC6)CC5)cc4)cc3)nc2c1	183
CC[C@H]1CN2CC[C@@H]1C[C@H]2[C@H](O)c1cc(N2CCC(C)CC2)nc2ccc(OC)cc12	172
N#Cc1ccc(CN2CCC(Oc3ccc(NC(=O)c4cccs4)cc3)C2)cc1 (centres undefined)	953
CCCCC/C=C/C(=O)NC1CCC(CN2CCC(c3c[nH]c4ccccc34)CC2)CC1 (centres undefined)	982
Fc1ccc(C2N=C(SCCSC3=NC(c4ccc(F)cc4)C(c4ccc(F)cc4)N3)NC2c2ccc(F)cc2)cc1 (centres undefined)	912
CCOc1ccc(C(=O)Nc2cc(Cl)ccc2O)cc1Cl	705
COc1ccccc1NC(=O)Nc1cccc(-c2ccc(-c3nc4cc(C(F)(F)F)ccc4[nH]3)cc2)c1	306
O=C(NC1CCN(CCN2CCc3ccccc3CC2)CC1)c1ccc(-c2ccc(C(F)(F)F)cc2)cc1	935
COc1ccc(NC(=O)CCNc2cc(C)nc(NCCOc3ccccc3)n2)cc1	746
COc1ccc(CNC(=O)NC2CCN(c3ccnc(Nc4cc(OC)c(OC)c(OC)c4)n3)C2)cc1 (centres undefined)	946
CN1CCCc2ccc(NC(=O)c3ccc(-c4cc(C(F)(F)F)nn4C)s3)cc2C1	880
Cc1ccccc1C1CCN(C2CCC(NC(=O)/C=C/c3cccc(Cl)c3F)CC2)CC1 (centres undefined)	1140
C#CCCOc1ccc2ccccc2c1CNCCCCCCNCc1c(OCCC#C)ccc2ccccc12	811
CCCC(=O)c1c(O)c2ccccc2oc1=O	265
COc1cccc(-c2ccc3c(-c4cccc(NC(C)=O)c4)cnc(N)c3c2)c1	106
CC(C)Oc1ccc(CCCON2C(=N)N=C(N)NC2(C)C)cc1	3.2
CC(=O)c1cccc(NC(=O)c2ccc(Cl)c(S(=O)(=O)N3CCc4ccccc43)c2)c1	1640
CN(C)CCNc1cc(-c2cccnc2)nc(-c2ccncc2)n1	596
Cc1cc(N(C)C)nc(Nc2ccc(NC(=O)c3ccccc3Cl)cc2)n1	1020

Structure (SMILES)	XC50 [nM]
COc1ccc(-c2ccc3c(-c4ccc(F)cc4)cnc(N)c3c2)cn1	388
CN(C)S(=O)(=O)c1ccc(N2C(=O)C3C(C2=O)C2(c4ccccc4)C(=O)C3(c3ccccc3)C(c3ccccc3)=C2c2ccccc2)cc1 (centres undefined)	951
CC(=O)Nc1cccc(CNCc2ccc(-c3cnc(N4CCCC(C)(C)C4)nc3)cc2)c1	822
O=C1Nc2cccc3c2C1(CCCCN1CCC(c2c[nH]c4cc(C(F)(F)F)ccc24)CC1)CCC3 (centres undefined)	715
COc1cc2ccccc2cc1CNCCCCCCNCc1cc2ccccc2cc1OC	720
CC(=O)Nc1nc(C(=O)Nc2cccc(-c3ccc(-c4nc5cc(F)ccc5[nH]4)cc3)c2)cs1	288
CN(C)c1ccc(-c2ccc(C(=O)NC3CCN(Cc4ccc(C(C)(C)C)cc4)CC3)s2)cc1	970
CN(c1ccnc(Nc2ccc(CS(C)(=O)=O)cc2)n1)C1CCN(Cc2ccccc2)CC1	1400
CC(=O)N(C)c1cccc(C(=O)Nc2cccc(-c3ccc(-c4nc5cc(C(F)(F)F)ccc5[nH]4)cc3)c2)c1	1000
O=C(/C=C/c1ccc(Cl)c(Cl)c1)NCCCCCN1CCC(NC(=O)Nc2ccc(F)c(Cl)c2)CC1	619
N=C(N)c1ccc(C=CC(=O)NCC(O)CNC(=O)C=Cc2ccc(C(=N)N)cc2)cc1 (centres undefined)	31.4
NC1CCN(c2nc(NCCCc3ccc(O)cc3)nc(NCc3cccc4ccccc34)n2)CC1	724
COc1ccc2nccc([C@@H](O)CN3CCC(NC(=O)C(c4cc5ccccc5o4)N4CCN(C(c5ccccc5)c5ccccc5)CC4)CC3)c2c1 (some centres undefined)	149
COc1cc(-c2nc(-c3ccc([N+](=O)[O-])cc3)c(-c3ccccc3)[nH]2)cc(OC)c1O	830
CC(C)Cn1cc(C2CCN(CCN3CCC(CNC(=O)c4ccc(-c5ccc(C(F)(F)F)cc5)cc4)CC3)CC2)c2ccccc21	753
Cc1csc(NC2=NCCN2)n1	471
COc1cc(OC)c(NC(=O)Nc2ccnc3ccccc23)cc1Cl	751
CC(C)COc1ccc(Cl)cc1Cc1ccc(-c2nc3ccc(F)c(F)c3[nH]2)o1	942
Cc1nc(-c2ccc(-c3ccc(C(=O)Nc4ccc(-n5ccnc5)c(N5CCN(C)CC5)c4)cc3)c(C)c2)no1	834
Cc1ccc(C2CCN(CCCCNC(=O)c3ccc(-c4ccc(C(F)(F)F)cc4)cc3)CC2)c(O)c1	128
CN1CCCN(Cc2ccc(-c3ccc(NS(=O)(=O)c4cccc5cccnc45)cc3)cc2)CC1	694
COc1cc2c(cc1OCCN1CCC(N3CCCCC3)CC1)N(C(=O)/C=C/c1ccccc1Cl)CC2	280
